Results on 6 molecules are retold here after patent publication US10035806B2, “Derivatized corroles and metallocorroles and their use as imaging and therapeutic agents” (CALIFORNIA INSTITUTE OF TECHNOLOGY, priority 2015, dated 2018).

Data set [1] relates to human cancer cells. As to conditions: previous work, cited from earlier work.
Data set [2] deals with MDA-MB-231 cells. As to conditions: literature values, read-out: IC50 reported for cisplatin; cited from earlier work.
In data set [3] the test system is OVCAR-3. Put plainly: MTS assay (cytotoxicity). In kind it is cell-based, human. As to conditions: OVCAR-3 (ovarian), 72 h exposure in the dark, mean of three experiments. From the text:
(§1) Reagents were obtained from the indicated suppliers: HBSS without phenol red and trypsin-EDTA (0.25%), Invitrogen/Gibco; PBS, Mediatech; 4′,6-diamidino-2-phenylindole dihydrochloride (DAPI) and DMSO, Sigma-Aldrich; paraformaldehyde, Electron Microscopy Sciences; WGA, Alexa Fluor 488 conjugate, Invitrogen/Molecular Probes; and ProLong Gold Antifade Mountant with DAPI, Life Technologies. Human Cancer Cell Lines. Four cell lines from the NCI60 cell panel (Shoemaker RH (2006) The NCI60 human tumour cell line anticancer drug screen. Nat Rev Cancer 6(10):813-823) representing four distinct tumor types were used in this study: DU-145, prostate; MDA-MB-231, breast; SK-MEL-28, melanoma; and OVCAR-3, ovarian. Cells were grown in RPMI 1640 cell culture medium (Mediatech) containing 2 mM L-glutamine, supplemented with 10% FBS (Omega Scientific), and maintained at 37° C. under 5% CO2 in a humidified incubator.
(§2) At the time of drug treatment, stock solutions of 1-4 were diluted to 10-fold the desired final test concentrations with RPMI medium 1640. Aliquots of […] of these diluted solutions were added to the appropriate microtiter wells containing 90 μL of medium, resulting in the required final drug concentrations (eight concentrations per compound, ranging from 0.3 to 600 μM). The final concentration of DMSO in test culture was <1%. […] Following 72 h of exposure at 37° C., cell viability was determined using the MTS assay (CellTiter 96 Aqueous One Cell Proliferation Assay; Promega) according to the manufacturer's instructions. Absorbances were measured using a microplate reader (Synergy 4; Biotek Instruments) at 490 nm. Experiments were performed in triplicate and each dose-response curve represents the mean of three or more independent experiments. Spectrophotometric data were analyzed by sigmoid dose-response, nonlinear regression analysis; the IC50, Emax values, and associated SE were calculated using GraphPad Prism 6 (GraphPad Software).
(§3) The effects of bis-sulfonate, carboxylate, and aminocaproate ring substituents on gallium corrole cytotoxicities were examined using four human cancer cell lines, representing tumors of different origin selected based on previously described sensitivities.

The test system of data set [4] is SK-MEL-28. The data set is described as follows: MTS assay (cytotoxicity). In kind it is cell-based, human. As to conditions: SK-MEL-28 (melanoma), 72 h exposure in the dark, mean of three experiments.
Text: as §1, §2, §3

Data set [5] has as its system MDA-MB-231. The data set is described as follows: MTS assay (cytotoxicity). As to conditions: MDA-MB-231 (breast), 72 h exposure in the dark, mean of three experiments. In kind it is cell-based, human.
Text: as §1, §2, §3

The subject of data set [6] is DU-145. The data set is described as follows: MTS assay (cytotoxicity). In kind it is cell-based, human. As to conditions: for pIC50: DU-145 (prostate), 72 h exposure in the dark, MTS assay, mean of three experiments.
Text: as §1, §2, §3

The subject of data set [7] is DU-145, SK-MEL-28, MDA-MB-231, OVCAR-3. Put plainly: Uptake of gallium corroles (ImageXpress confocal), cell lines taken together. In kind it is cell-based, human. As to conditions: 30 μM. The protocol:
The intracellular uptake of gallium corroles was quantified using the ImageXpressultra laser point-scanning confocal microscope (Molecular Devices). The fluorescence image acquisition settings were as previously reported (Lim P, et al. (2012), Chem Res Toxicol 25(2):400-409.). Cells (DU-145, SK-MEL-28, MDA-MB-231, and OVCAR-3) were seeded in 96-well dishes (8×10^3 cells per well in 0.1 mL) and allowed to attach overnight. Complex 1, 2, 3, or 4 was added directly to cell media at 30 μM final concentration or media only control, and incubated for 0.25, 1, 3, or 24 h at 37° C. in the dark under a 5% CO2 atmosphere. Cells were fixed and labeled in situ with WGA-Alexa Fluor 488 conjugate and DAPI to allow for the identification of cell boundary and nucleus, respectively. The quantification of blue (DAPI) fluorescence signals in each sample yielded the total number of cells in that population. Corresponding determination of red (corrole) fluorescence within each cell, corrected for background fluorescence from untreated cells, provided the number of cells containing corroles. For each corrole concentration at various time points, fluorescence data were obtained for 1,000-22,000 individual cells. Data acquisitions and analyses were performed as described (Lim P, et al. (2012), Chem Res Toxicol 25(2):400-409). The percentage of corrole-positive cells and the median fluorescence intensity (median RFU) for each treatment were plotted in a three-axis graph using Microsoft Office Excel 2007 (Microsoft Corporation).
To quantify the kinetics of intracellular uptake and accumulation of each derivative, ImageXpressultra, a laser point-scanning confocal microscope, was used for analyses. […] Cells were incubated at 37° C. in the dark for 0.25, 1, 3, or 24 h. […] Within 15 min, Complex 4 fluorescence was observable in ˜80% of ovarian cancer cells, 97% of breast cancer cells, and >99% of prostate cancer and melanoma cells, whereas up to 3 and 24 h were required to label >80% of cells from all four cancer lines with Complexes 3 and 2, respectively. […]

Data set [8] has as its system murine model animals. As to conditions: previous work; cited from earlier work.

pIC50: −log10 of the molar value. Several values for one entry are separate records, joined by “and”; a condition that tells them apart may be missing. Equal values may be shown once.

On to `COc1ccc(C2=c3ccc4[n]3[Mn-]35[n]6c(ccc62)C(c2cc[n+](C)cc2)=C2C=CC(=[N+]23)c2ccc([n]25)C=4c2cc[n+](C)cc2)cc1` (stereo not shown) [Complex 5], for which the “effect of pyridinium substitution (in place of bis-sulfonic acids) on uptake, activity, toxicity” value in data set [1] was “improve uptake and activity”.

Take `C[n+]1ccccc1C1=C2C=CC3=[N+]2[Mn-]24[n]5c1ccc5C(c1cccc[n+]1C)=c1ccc([n]12)=C(c1cccc[n+]1C)c1ccc3[n]14` (stereo not shown) [Complex 6]: in data set [1], the “effect of pyridinium substitution (in place of bis-sulfonic acids) on uptake, activity, toxicity” value was “completely ablated toxicity”.

As to `N.N.[Cl][Pt][Cl]` [cisplatin], in data set [2], the negative-log IC50 (pIC50) is 4.33 and 4.41.

As for `O=C(O)C1=CC2=[N+]3C1=C(c1c(F)c(F)c(F)c(F)c1F)c1ccc4[n]1[Ga-]31[n]3c(ccc32)C(c2c(F)c(F)c(F)c(F)c2F)=c2ccc([n]21)=C4c1c(F)c(F)c(F)c(F)c1F` (stereo not shown) [Complex 4], the negative-log IC50 (pIC50) was 4.95 in data set [3], 5.32 in data set [4], 4.82 in data set [5] and 4.89 in data set [6]. Moreover, in data set [6] (DU-145, 72 h, MTS), the “IC50 lower than bis-sulfonated Complex 2” value is listed as −12 fold.

Consider `Fc1c(F)c(F)c(C2=C3C=CC4=[N+]3[Ga-]35[n]6c2ccc6C(c2c(F)c(F)c(F)c(F)c2F)=c2ccc([n]23)=C(c2c(F)c(F)c(F)c(F)c2F)c2ccc4[n]25)c(F)c1F` (stereo not shown) [Complex 1, gallium(III) tris(pentafluorophenyl)corrole], for which the “time required for significant uptake (≥80% cells)” value in data set [7] (melanoma, ovarian, and breast cancer cell lines) is 24 h. In addition, the pIC50 in data set [3] is 4.24; in data set [4], 4.21; in data set [5], 4.00; in data set [6], 3.87.

Take `O=S(=O)(O)C1=CC2=C(c3c(F)c(F)c(F)c(F)c3F)c3ccc4[n]3[Ga-]35[n]6c(cc(S(=O)(=O)O)c6C(c6c(F)c(F)c(F)c(F)c6F)=c6ccc([n]63)=C4c3c(F)c(F)c(F)c(F)c3F)C1=[N+]25` (stereo not shown) [Complex 2]: in data set [7] (37° C., dark), the “time required to label >80% of cells from all four cancer lines” value was at most 24 h. The pIC50 in data set [3] is 3.56; in data set [4], 3.88; in data set [5], 3.89; in data set [6], 3.80; in data set [6] (listed as 2) it was 3.80. Further, the “antitumor activity in vivo” value in data set [8] is given as “potent antitumor activity”. Also, the “antitumor activity in vitro” value in data set [1] (human cancer cells) is on record as “potent antitumor activity”. Also, the “mechanism of cytotoxicity: cell cycle effect” value in data set [1] (numerous cancer cell lines in vitro) was “induce cell cycle arrest at late M phase”.
